The values that follow come from patent publication US11999941B2, “Composition suitable for protecting microorganisms” (SOCIÉTÉ DES PRODUITS NESTLÉ S.A., priority 2015, dated 2024).

The structures appear in SMILES notation.

This assay has as its system Bifidobacterium longum BL999. Description: Pre-screening of single ingredients as protective agent: viability loss after spray-drying, storage and reconstitution. It is filed as cell-based. As to conditions: for storage stability / losses during storage and reconstitution: storage at T=37° C.; for storage stability / losses during storage and reconstitution / viability loss after 8 weeks: aw=0.22, after spray-drying; for protective effect during drying: individual ingredient 18.2 wt % with maltodextrin DE12 and sodium ascorbate, compared to the reference; for viability loss after 8 weeks: 8 weeks storage at T=37° C. As for the experimental part:
A fermentation medium suitable for the growth of Bifidobacterium longum BL999 was inoculated with 2% frozen-thawed bacteria.
The centrifuged biomass was then conditioned according to the following process. […] Then 300 g of centrifuged biomass were filled into a beaker, which was placed in an ice water bath. The total solids content of the biomass was measured and the protective agent solution was added at a ratio of protective agents to biomass of 55/45 (based on dry weight). The mixture was gently agitated in the ice water bath for one hour. The pH was then adjusted to pH7.
The conditioned concentrate was then spray-dried on a lab-scale spray-dryer (Buechi, B-290, Flawil, Switzerland). The air temperature was 140° C. and the tower temperature was adjusted by the concentrate flow to T=70° C. During drying, the beaker containing the concentrate was cooled in an ice water bath.
In a first round of trials, 38 ingredients were selected as potential protective agents. The effect of those ingredients on the stability of Bifidobacterium longum BL999 was tested by spray-drying biomass with a protective agent comprising maltodextrin DE12, sodium ascorbate and one single additional ingredient from the list of 38 compounds to be screened in the following concentrations:
This control was used as a reference to evaluate the effect of the protective agents on the stability of Bifidobacterium longum BL999 during spray-drying, storage and reconstitution.
The 38 culture powders and the control were prepared as described above, the conditioning being carried out with one of the 38 protective agents.
The cell concentration of B. longum in the powder was detected by classical plating methods. Such classical plating methods are summarized in the microbiology book: James Monroe Jay, Martin J. Loessner, David A. Golden. […] Modern food microbiology. 7th edition, Springer Science, New York, N.Y. The cells were counted in the concentrate before drying, in the culture powder directly after drying and after 2, 3, 4, 6, 8 and/or 12 weeks storage in a climatic chamber at T=37° C. above saturated potassium acetate solution (aw=0.22). The cell counts after drying and after storage were determined after reconstitution of the powder with a reconstitution medium, as known by the person skilled in the art, who is well aware of the above-mentioned plating methods.
The following formulae were used for the evaluation of the data:
where X0 is the number of micro-organisms at time t=0 and Xt the number of microorganisms at time t. When the microbiological counts were measured in k replicates, x0 is the average number of micro-organisms at time t=0 and, xt is the average number of micro-organisms at time t, the average log loss at time t is given by:
The tested individual ingredients were selected among several groups of molecules: sugars, sugar alcohols, amino acids and proteins. All tested ingredients within a group were spray-dried on the same day and the reference was spray dried again with each group, also on the same day.

Where [1] appears, read: individual ingredient 18.2 wt %.

Regarding `C[C@H](N)C(=O)O` [alanine, L-alanine], the “storage stability / losses during storage and reconstitution” value under setting [1] is “lowest losses during storage and reconstitution”. For `N=C(N)NCCC[C@H](N)C(=O)O` [arginine, L-arginine], the “storage stability / losses during storage and reconstitution” value under setting [1] is “lowest losses during storage and reconstitution”. Regarding `N[C@@H](CS)C(=O)O` [cysteine, L-cysteine], the “viability loss during drying” value (spray-drying, protective agent of maltodextrin DE12 68.2 wt %, sodium ascorbate 13.6 wt %, individual ingredient 18.2 wt %) is reported as 0.2 log. Also, the “storage stability / losses during storage and reconstitution” value under setting [1] is “lowest losses during storage and reconstitution”. Take `OCC(O)CO` [glycerol]: the “protective effect during drying” value (spray-drying) is reported as “light protective effect”. Moreover, the “storage stability / losses during storage and reconstitution” value under setting [1] is given as “majority of the bacteria of this variant died already after two weeks storage”.

With `OC[C@@H](O)[C@@H](O[C@@H]1O[C@H](CO)[C@H](O)[C@H](O)[C@H]1O)[C@H](O)[C@@H](O)CO` [lactitol], the “viability loss after 8 weeks” value under setting [1] was “lowest”.

On to `NCCCC[C@H](N)C(=O)O` [lysine, L-lysine], for which the “storage stability / losses during storage and reconstitution” value under setting [1] was “lowest losses during storage and reconstitution”. Consider `OC[C@@H](O)[C@@H](O)[C@H](O)[C@H](O)CO` [mannitol], for which, under setting [1], the “viability loss after 8 weeks” value is recorded as “lowest”. For the same compound, for the setting “spray-drying”, the “protective effect during drying” value was “light protective effect”. As to `O[C@H]1[C@H](O)[C@@H](O)[C@H](O)[C@@H](O)[C@H]1O` [myo-inositol], under setting [1], the “viability loss after 8 weeks” value is on record as “lowest”. As to `O=C1O[C@H]([C@@H](O)CO)C([O-])=C1O.[Na+]` [sodium ascorbate], the “protective effect during drying” value (spray-drying) was “does not show significant effect on the bacterial survival during the drying process”. `OC[C@@H](O)[C@@H](O)[C@H](O)[C@@H](O)CO` [sorbitol]: the “viability loss after 8 weeks” value under setting [1] was “lowest”. Moreover, the “protective effect during drying” value (spray-drying) is reported as “light protective effect”.

On to `OC[C@H]1O[C@@](CO)(O[C@H]2O[C@H](CO)[C@@H](O)[C@H](O)[C@H]2O)[C@@H](O)[C@@H]1O` [sucrose], for which the “storage stability / losses during storage and reconstitution” value under setting [1] is given as “most efficient ingredient”. For `OC[C@@H](O)[C@H](O)[C@@H](O)CO` [xylitol], the “protective effect during drying” value (spray-drying) is “light protective effect”.
